Results on twelve molecules are retold here after patent publication EP2970215B1, “PYRROLIDINE DERIVATIVES, PHARMACEUTICAL COMPOSITIONS CONTAINING THEM, AND THEIR USE IN THERAPY” (AbbVie Deutschland GmbH & Co. KG, priority 2013, dated 2014).

A word on the Ki: it is the dissociation constant of the complex between target and ligand, obtained from inhibition or displacement.

A value given as a limit tells only on which side of the number the result lay.

The assay has as its target T1, human GlyT1c transporter (Homo sapiens, UniProt P48067).
T1 construct: expressed in transfected cells; host or cells: CHO cells (recombinant; line hGlyT1c_5_CHO is named for the uptake assay)
T1 sequence (P48067 1-706): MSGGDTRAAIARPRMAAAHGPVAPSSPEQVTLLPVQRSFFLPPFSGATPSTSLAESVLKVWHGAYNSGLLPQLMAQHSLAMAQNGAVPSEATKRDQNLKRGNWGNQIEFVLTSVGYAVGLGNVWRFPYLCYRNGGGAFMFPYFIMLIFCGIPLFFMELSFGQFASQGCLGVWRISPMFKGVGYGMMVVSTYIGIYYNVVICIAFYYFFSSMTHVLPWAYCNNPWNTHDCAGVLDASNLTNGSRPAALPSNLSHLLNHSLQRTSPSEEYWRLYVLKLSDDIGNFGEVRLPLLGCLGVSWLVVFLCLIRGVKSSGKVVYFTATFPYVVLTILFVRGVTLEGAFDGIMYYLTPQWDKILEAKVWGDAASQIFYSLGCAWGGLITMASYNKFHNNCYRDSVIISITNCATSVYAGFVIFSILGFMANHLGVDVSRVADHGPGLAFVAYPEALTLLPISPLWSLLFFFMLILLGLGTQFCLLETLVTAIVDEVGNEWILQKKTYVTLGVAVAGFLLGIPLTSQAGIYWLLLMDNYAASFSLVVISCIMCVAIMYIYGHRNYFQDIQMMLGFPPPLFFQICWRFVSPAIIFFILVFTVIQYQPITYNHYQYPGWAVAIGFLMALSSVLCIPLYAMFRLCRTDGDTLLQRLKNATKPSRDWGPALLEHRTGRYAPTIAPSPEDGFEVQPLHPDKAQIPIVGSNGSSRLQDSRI
The assay can be described thus: Radioligand binding assay using recombinant CHO cell membranes expressing human GlyT1. Particulars: radioligand binding to human GlyT1c transporter-expressing membranes. An excerpt:
2. Radioligand binding assays using recombinant CHO cell membranes expressing human GlyT1: […]
For the molecule `Cn1cnc(S(=O)(=O)N2C[C@@H](Nc3ccccc3)[C@H](c3ccccc3)C2)c1` (relative stereo) [Example 29, trans-1-[(1-methyl-1H-imidazol-4-yl)sulfonyl]-N,4-diphenylpyrrolidin-3-amine], the Ki was not above 1 µM.

With `Cn1cnc(S(=O)(=O)N2C[C@H](Nc3cnc(C4CC4)cn3)[C@@H](c3ccccc3)C2)c1` [Example 410, 5-cyclopropyl-N-{(3R,4S)-1-[(1-methyl-1H-imidazol-4-yl)sulfonyl]-4-phenylpyrrolidin-3-yl}pyrazin-2-amine], the Ki is not above 10 µM.

For `Cn1cnc(S(=O)(=O)N2C[C@@H](NC(=O)c3ccc(C(F)(F)F)cc3Cl)[C@H](c3ccccc3)C2)c1` (relative stereo) [Example 60, 2-chloro-N-{trans-1-[(1-methyl-1H-imidazol-4-yl)sulfonyl]-4-phenylpyrrolidin-3-yl}-4-(trifluoromethyl)benzamide], the Ki was not above 0.1 µM. To `Cn1cnc(S(=O)(=O)N2C[C@H](c3ccccc3)[C@H](Nc3ccccc3)C2)c1` (relative stereo) [Example 184, (cis)-1-[(1-methyl-1H-imidazol-4-yl)sulfonyl]-N,4-diphenylpyrrolidin-3-amine] belongs not above 10 µM. In the case of `Cn1cnc(S(=O)(=O)N2C[C@H](NCc3scnc3-c3ccccc3)[C@@H](c3ccccc3)C2)c1` [Example 430, (3R,4S)-1-[(1-methyl-1H-imidazol-4-yl)sulfonyl]-4-phenyl-N-[(4-phenyl-1,3-thiazol-5-yl)methyl]pyrrolidin-3-amine] it was more than 10 µM; in that of `Cn1cnc(S(=O)(=O)N2C[C@@H](Nc3ccccc3F)[C@H](c3ccccc3)C2)c1` (relative stereo) [Example 69, trans-N-(2-fluorophenyl)-1-[(1-methyl-1H-imidazol-4-yl)sulfonyl]-4-phenylpyrrolidin-3-amine], not above 10 µM. As for `Cn1cnc(S(=O)(=O)N2C[C@H](Nc3cc(-c4cccc(Cl)c4)ncn3)[C@@H](c3ccc(F)cc3)C2)c1` [Example 729, 6-(3-chlorophenyl)-N-{(3R,4S)-4-(4-fluorophenyl)-1-[(1-methyl-1H-imidazol-4-yl)sulfonyl]pyrrolidin-3-yl}pyrimidin-4-amine], the Ki was not above 0.01 µM.

As for `Cn1cnc(S(=O)(=O)N2C[C@@H](Nc3ccc(Cl)c(C(F)(F)F)c3)[C@H](c3ccccc3)C2)c1` (relative stereo) [Example 217, trans-N-[4-chloro-3-(trifluoromethyl)phenyl]-1-[(1-methyl-1H-imidazol-4-yl)sulfonyl]-4-phenylpyrrolidin-3-amine], the inhibition constant (Ki) was not above 1 µM. To `Cc1noc(C)c1S(=O)(=O)N1CC(Nc2ccc(F)c(F)c2)C(c2ccccc2)C1` (stereo not drawn) [Example 513, N-(3,4-difluorophenyl)-1-[(3,5-dimethyl-1,2-oxazol-4-yl)sulfonyl]-4-phenylpyrrolidin-3-amine] belongs more than 10 µM.

For `Cn1cnc(S(=O)(=O)N2C[C@H](NCc3c(Cl)cncc3Cl)[C@@H](c3ccccc3)C2)c1` [Example 432, (3R,4S)-N-[(3,5-dichloropyridin-4-yl)methyl]-1-[(1-methyl-1H-imidazol-4-yl)sulfonyl]-4-phenylpyrrolidin-3-amine], the inhibitory constant (Ki) is not above 10 µM.

As for `Cn1cnc(S(=O)(=O)N2C[C@@H](Nc3cc(F)cc(C(F)(F)F)c3)[C@H](c3ccc(F)cc3)C2)c1` (relative stereo) [Example 168, trans-4-(4-fluorophenyl)-N-[3-fluoro-5-(trifluoromethyl)phenyl]-1-[(1-methyl-1H-imidazol-4-yl)sulfonyl]pyrrolidin-3-amine], the Ki was not above 0.1 µM.

As for `Cn1cnc(S(=O)(=O)N2C[C@H](Nc3cc(-c4ccccc4F)ncn3)[C@@H](c3ccc(F)cc3)C2)c1` [Example 726, 6-(2-fluorophenyl)-N-{(3R,4S)-4-(4-fluorophenyl)-1-[(1-methyl-1H-imidazol-4-yl)sulfonyl]pyrrolidin-3-yl}pyrimidin-4-amine], the Ki is not above 0.1 µM.
